{"source": "patent US20150250925A1", "about": "“[…] TISSUE, […] MODEL AND MANUFACTURING METHOD THEREFOR” (priority 2012, published 2015)", "type_in_all_cases": "cell-based, human", "key": {"[1]": {"tested_on": "dermal tissue layer (without dendritic cells)", "experiment": "Immune response evaluation: IL-6 ELISA after LPS addition, dermal tissue layer without dendritic cells", "details": "LPS 0, 1, 10, 100 or 1000 ng/ml, 24 hours; layer does not include dendritic cells; FIG. 3", "description": "(§1) A dermal tissue layer including dendritic cells was prepared in the same manner as Example 1. The culture medium of the dermal tissue layer was changed to DMEM containing 10% FBS (the inside of the insert: 30 μl, the outside of the insert: 1 ml). Lipopolysaccharide (LPS, produced by Sigma-Aldrich Co. LLC.) was added to the inside of the insert and incubated for 24 hours. Then, all the culture medium in the outside of the insert was collected, and interleukin (IL)-6 was quantified by enzyme-linked immunosorbent assay (ELISA (R & D, D6056)). The concentration of the lipopolysaccharide was 0, 1, 10, 100, or 1000 ng/ml.\nA dermal tissue layer (without dendritic cells) was prepared in the same manner as Example 1 except that “only the NHDF coated cells” were used instead of “a mixture of the NHDF coated cells and the MoDC coated cells”. Using the dermal tissue layer, an immune response was evaluated in the same manner as described above.\n(§2) FIG. 3 is an example of a graph showing the relationship between the amount of LPS added and the amount of IL-6 produced from the dermal tissue layer."}, "[2]": {"tested_on": "artificial skin model including the epidermal layer", "experiment": "Immune response evaluation: IL-6 ELISA after LPS addition, artificial skin model of Example 4", "details": "LPS 0-1000 ng/ml, 24 hours, FIG. 4", "description": "as §1\nFirst, a dermal tissue layer was prepared in the same manner as Example 1 and immersed in a 50 mM Tris-HCl solution (pH=7.4) containing collagen IV for 20 minutes, so that the dermal tissue layer was coated with collagen W Then, 1.8×10^5 KC were seeded and cultured in an adherent culture medium for 2 days. Subsequently, the KC were exposed to the air-liquid interface of a keratinized medium (multi-layered medium) for 7 days to induce differentiation, and thus an artificial skin model was prepared.\nUsing the artificial skin model, an immune response was evaluated in the same manner as Reference Example 1. […] FIG. 4 is an example of a graph showing the relationship between the amount of LPS added and the amount of IL-6 produced from the dermal tissue layer. […]"}, "[3]": {"tested_on": "dermal tissue layer including dendritic cells", "experiment": "Immune response evaluation: IL-6 ELISA after LPS addition, dermal tissue layer including dendritic cells", "details": "24 hours, FIG. 3", "description": "as §1, §2"}, "[4]": {"tested_on": "dermal tissue layer with NHDF, NHDMEC and MoDC", "experiment": "CLSM observation of dermal tissue layer of Reference Example 2 after LPS addition", "details": "1 μg/ml LPS, 30 hours after addition; FIG. 5", "description": "NHDF coated cells were seeded and cultured so that the NHDF were arranged in 4 layers. Then, NHDMEC (human dermal microvascular endothelial cells) coated cells were seeded and cultured on top of the NHDF layers so that the NHDMEC were arranged in 1 layer. Moreover, NHDF coated cells were seeded and cultured on the NHDMEC layer so that the NHDF were arranged in 4 layers. These layered cells were cultured in 2.3 ml of DMEM containing 10% FBS for 3 days. Subsequently, 5×10^4 MoDC were seeded and cultured in 2.3 ml of DMEM containing 10% FBS for 1 day. Thus, a dermal tissue layer was formed. The dermal tissue layer was placed in the insert, to which 1 μg/ml LPS was added. The dermal tissue layer was observed by a confocal laser scanning microscope for 30 hours.\nFIG. 5 is an example of a confocal laser scanning microscope (CLSM) image taken 30 hours after the addition of the LPS. […] Although the details of this are not clear, it is known that the dendritic cells are transferred to the lymphatic vessels when they are activated by an antigen in a living body. […] Moreover, it has been reported that, in a living body, a CC chemokine receptor 7 is expressed in the activated dendritic cells, while CC chemokine ligands 21, 19, which are ligands of the CC chemokine receptor 7, are produced in the lymphatic vessels. […]"}}}
{"substance": "Lipopolysaccharide [LPS]", "values": [{"measurement": "amount of IL-6 produced from the dermal tissue layer", "setting": "[1]", "result": "increases with an increase in the amount of LPS added"}, {"measurement": "amount of IL-6 produced", "setting": "[2]", "result": "does not change with the amount of LPS added"}, {"measurement": "amount of IL-6 produced from the dermal tissue layer", "setting": "[3]; LPS 0, 1, 10, 100 or 1000 ng/ml, layer includes dendritic cells", "result": "increases with an increase in the amount of LPS added"}, {"measurement": "amount of IL-6 produced, layer with dendritic cells compared to layer without", "setting": "[3]; LPS 0-1000 ng/ml", "result": "increases significantly"}, {"measurement": "overlap between dendritic cells and NHDMEC (CLSM image)", "setting": "[4]", "result": "state of overlap between the dendritic cells and the NHDMEC after the addition of the LPS is observed"}]}
